This passage reports IC50 results from patent US20100216758A1, “Pyridone Compounds” (priority 2005, published 2010).

T1 sequence (Q99705 whole entry): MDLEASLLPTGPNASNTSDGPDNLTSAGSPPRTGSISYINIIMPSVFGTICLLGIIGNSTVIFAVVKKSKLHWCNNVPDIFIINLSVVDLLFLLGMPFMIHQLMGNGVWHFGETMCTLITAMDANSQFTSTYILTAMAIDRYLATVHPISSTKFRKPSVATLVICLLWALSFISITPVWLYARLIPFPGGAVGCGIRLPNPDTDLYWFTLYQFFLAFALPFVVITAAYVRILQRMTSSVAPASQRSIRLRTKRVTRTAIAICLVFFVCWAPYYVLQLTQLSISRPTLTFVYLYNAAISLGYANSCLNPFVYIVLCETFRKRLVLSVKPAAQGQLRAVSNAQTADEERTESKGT

The assay addresses T1, human MCH-1R (Homo sapiens, UniProt Q99705).
T1 construct: expressed in transfected cells; host or cells: CHO-K1 (American Type Culture Collection), vector pEF/myc/cyto (Invitrogen)
Briefly: MCH binding inhibition test. The conditions noted are these: membrane samples from MCH-1R expressing CHO-K1 cells, 50 pM [125I]MCH, 25° C., one hour, pH 7.4; read-out: IC50 (50% inhibition concentration of test compound to the specific [125I]MCH binding). Here is the method: A human MCH-1R encoding cDNA sequence [FEBS Letters, Vol. 398, 253 (1996); Biochimica et Biophisica Acta, Vol. 1401, 216 (1998)] was cloned to a plasmid vector pEF/myc/cyto (Invitrogen Corporation). The obtained expression vector was transfected to host cells CHO-K1 (American Type Culture Collection) using Lipofectamine Plus Reagent (Life Technology Inc.) to provide MCH-1R expression cells.
Membrane samples prepared from the MCH-1R expression cells were incubated with each test compound and 50 pM of [^125I]MCH (NEN Co.), in an assay buffer (50 mM Tris buffer comprising 10 mM magnesium chloride, 2 mM ethylenediamine tetraacetate, 0.01% bacitracin and 0.2% bovine serum albumin; pH 7.4) at 25° C. for an hour, followed by filtration through a glass filter GF/C (Wattman Co.). After washing the glass filter with 50 mM Tris buffer (pH 7.4) comprising 10 mM magnesium chloride, 2 mM ethylenediamine tetraacetate and 0.04% Tween-20, the radioactive activity on the glass filter was measured. The non-specific binding was measured in the presence of 1 μM human MCH and 50% inhibition concentration (IC50 value) of each test compound to the specific [^125I]MCH binding was determined.
In the case of `O=c1cc(OCc2ccc(Cl)cn2)ccn1CCc1ccc(CN2CCCC2)cc1` [Example 26, 4-[(5-Chloropyridin-2-yl)methoxy]-1-(2-[4-(pyrrolidin-1-ylmethyl)phenyl]ethyl}pyridin-2(1H)-one], the IC50 came to 5.8 nM.
Turning to `O=c1cc(OCc2ccc(Cl)cc2)ccn1CCc1ccc(CN2C3CCC2CC3)cc1` [Example 41, 1-{2-[4-(7-Azabicyclo[2.2.1]hept-7-ylmethyl)phenyl]ethyl}-4-[(4-chlorobenzyl)oxy]pyridin-2(1H)-one], the IC50 came to 3 nM.
For the molecule `CCN(CC)Cc1ccc(CCn2ccc(OCc3ccc(F)cc3)cc2=O)cc1` [Example 2, 1-(2-{4-[(Diethylamino)methyl]phenyl}ethyl)-4-[(4-fluorobenzyl)oxy]pyridin-2(1H)one], the IC50 stood at 5.9 nM.
Under `CCN(CC)Cc1ccc(CCn2ccc(OCc3ccc(Cl)cn3)cc2=O)cc1` [Example 14, 4-[(5-Chloropyridin-2-yl)methoxy]-1-(2-{4-[(diethylamino)methyl]phenyl}ethyl)pyridin-2(1H)-one] stands 7.3 nM.
For the molecule `CCCNCc1ccc(CCn2ccc(OCc3ccc(F)cc3)cc2=O)cc1` [Example 72, 4-[(4-Fluorobenzyl)oxy]-1-(2-{4-[(propylamino)methyl]phenyl}ethyl)pyridin-2(1H)-one], the IC50 was determined as 2.6 nM.
